Results reported in patent US7629150B2, “Transformed cell harboring DNA or RNA encoding sugar chain synthesizing agent having β1,3-N-acetylglucosaminyltransferase activity” (Kyowa Hakko Kirin Co., Ltd., priority 2000, dated 2009).

Experiments:
Format in all cases: biochemical
G6sec2 [1] = molecular target: T1, G6sec2 (Homo sapiens, UniProt Q9BYG0); assay: β1,3-N-acetylglucosaminyltransferase activity using pyridylaminated oligosaccharides as substrates; conditions: 37° C., 14.5 hours
T1 construct: made in house; host or cells: Sf21 insect cells infected with pVL1393-F2G6sec2-derived recombinant baculovirus
T1 sequence (Q9BYG0 39-378): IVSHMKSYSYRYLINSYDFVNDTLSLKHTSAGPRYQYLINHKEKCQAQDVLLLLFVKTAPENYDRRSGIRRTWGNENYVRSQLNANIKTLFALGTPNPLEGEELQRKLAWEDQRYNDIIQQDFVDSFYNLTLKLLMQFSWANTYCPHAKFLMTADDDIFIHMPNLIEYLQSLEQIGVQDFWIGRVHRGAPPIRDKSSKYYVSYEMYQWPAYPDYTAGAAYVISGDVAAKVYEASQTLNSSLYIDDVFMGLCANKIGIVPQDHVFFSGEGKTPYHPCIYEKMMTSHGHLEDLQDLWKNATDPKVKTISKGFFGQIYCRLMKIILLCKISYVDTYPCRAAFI
Description: After carrying out the reaction at 37° C. for 14.5 hours in 30 μl of an assay solution [150 mmol/l sodium cacodylate (pH 7.2), 50 mmol/l UDP-GlcNAc (manufactured by SIGMA), 0.4% Triton CF-54, 10 mmol/l MnCl2, 50 μmol/l pyridylaminated sugar chain substrate, a purified enzyme solution (G6sec2)], the product was detected by HPLC. The purified enzyme (G6sec2) was obtained according to the method shown in Example 8(6). The purified enzyme (280 μl) was prepared from 30 ml of a culture supernatant of Sf21 infected with the recombinant virus derived from pVL1393-F2G6sec2, and the assay was carried out using 5 μl thereof. As substrates, LnNT, lacto-N-tetraose (Galβ1-3GlcNAcβ1-3Galβ1-4Glc (hereinafter referred to as “LNT”), lacto-N-fucopentaose II (Galβ1-3(Fucα1-4)GlcNAcβ1-3Galβ1-4Glc; hereinafter referred to as “LNFP-II”), lacto-N-fucopentaose III (Galβ1-4(Fucα1-3)GlcNAcβ1-3Galβ1-4Glc; hereinafter referred to as “LNFP-III”), lacto-N-fucopentaose V (Galβ1-3GlcNAcβ1-3Galβ1-4(Fucα1-3)Glc; hereinafter referred to as “LNFP-V”), and lacto-N-difucohexaose II (Galβ1-3(Fucα1-4)GlcNAcβ1-3Galβ1-4(Fucα1-3)Glc; hereinafter referred to as “LNDFH-II”) (all manufactured by Oxford Glycosystems) were fluorescently-labeled with aminopyridine and used. The substrates were fluorescently-labeled according to a conventional method [Agric. Biol. Chem., 54, 2169 (1990)].
After carrying out the reaction on each substrate using an assay solution containing UDP-GlcNAc (saccharide donor) and an assay solution containing no donor and subsequently analyzing by HPLC, peaks appeared only in the assay solution containing UDP-GlcNAc was defined as products.
The assay solution after completion of the reaction was treated at 100° C. for 5 minutes and then centrifuged at 10,000×g for 5 minutes to obtain a supernatant, and a part thereof (5 μl) was subjected to HPLC.
The HPLC was carried out using TSK-gel ODS-80Ts Column (4.6×300 mm; manufactured by TOSOH) and 0.02 mol/l ammonium acetate buffer (pH 4.0) as the eluant at an elution temperature of 50° C. and a flow rate of 0.5 ml/min.
Detection and determination of products were carried out using a fluorescence spectrophotometer FP-920 (manufactured by JASCO Corporation) (excitation wavelength: 320 nm, radiation wavelength: 400 nm).

G6sec2 [2] = molecular target: T1, G6sec2; assay: β1,3-N-acetylglucosaminyltransferase activity using unlabeled oligosaccharides as substrates (HPAE/PAD); conditions: unlabeled oligosaccharide 10 mmol/l, 37° C., 16 hours
Description: The glycosyltransferase reaction was carried out as follows. The reaction was carried out at 37° C. for 16 hours in 40 μl of an assay solution [50 mmol/l MOPS (pH 7.5), 5 mmol/l UDP-GlcNAc (manufactured by SIGMA), 5 mmol/l MnCl2, 10 mmol/l sugar chain substrate, a purified enzyme solution (G6sec2)]. Next, the mixture was treated at 100° C. for 5 minutes and then centrifuged at 10,000×g for 20 minutes to obtain a supernatant, and a part thereof was analyzed using HPAE/PAD ([…]; manufactured by DIONEX). The method was specifically carried out according to a conventional method [Anal. Biochem., 189, 151-162 (1990), J. Biol. Chem., 273, 433-440 (1998)].
As a purified enzyme (G6sec2), […] of the enzyme obtained in the above (2) was used. As substrates, unlabeled oligosaccharides [lactose (Galβ1-4Glc) and LNnT] were used.
After the reaction on each substrate using an assay solution containing UDP-GlcNAc (saccharide donor) and an assay solution containing no donor, analysis was carried out using HPAE/PAD and peaks appeared only in the assay solution containing UDP-GlcNAc were defined as products. The product was identified using coincidence of its elution time with that of standard sugar chain as the index. As standard sugar chains, GlcNAcβ1-3Galβ1,4Glc and GlcNAcβ1-3Galβ1,4GlcNAcβ1-3Galβ1-4Glc were used.

G6sec2 [3] = molecular target: T1, G6sec2; assay: β1,3-N-acetylglucosaminyltransferase activity of purified FLAG peptide-fused G6 polypeptide, 2-aminobenzamide-labeled oligosaccharide substrates; conditions: second enzyme-adsorbed ANTI-FLAG M1 AFFINITY GEL (printed G6sec1-adsorbed gel) used as enzyme

CC(=O)N[C@H]1[C@H](O[C@H]2[C@@H](O)[C@@H](CO)O[C@@H](O[C@H]3[C@H](O)[C@@H](O)C(O)O[C@@H]3CO)[C@@H]2O)O[C@H](CO)[C@@H](O[C@@H]2O[C@H](CO)[C@H](O)[C@H](O)[C@H]2O)[C@@H]1O (mixture of isomers) [LNnT, lacto-N-neotetraose]
Relative activity (%) (G6sec2 [1]; pyridylaminated oligosaccharides 50 μmol/l, LNnT defined as 100%): 100% | conversion efficiency of the substrate into the product (G6sec2 [1]; pyridylaminated substrate 50 μmol/l): 12.8% | conversion efficiency into the product (G6sec2 [2]): 0.48% | conversion efficiency of the substrate (G6sec2 [3]): 20.2%
